Source: publication PMC10377574, “Preclinical Characterization of a Stabilized Gastrin-Releasing Peptide Receptor Antagonist for Targeted Cancer Theranostics” (Biomolecules, 2023)
Each block holds one compound with its values, some of them ahead of it.

Columns and labels:
[1] = Biodistribution in negative control mice bearing DU-145 tumors; format: in vivo; conditions: Balb/c nu/nu, mouse, iv, 40 pmol, total radioactivity, 1 h pi, n = 4
Protocol: (§1) Biodistribution was conducted in Balb/c nu/nu mice (Scanbur A/S, Stockholm, Sweden), implanted subcutaneously in their flanks with PC-3 cells (6 × 10^6 cells/mouse) 3–4 weeks before the study. […] Biodistributions were conducted at 1 h pi for both control groups.

[2] = In vivo metabolic stability in peripheral mice blood, HPLC; conditions: 5 min pi
Protocol: (§2) Pills were ground to a fine powder in a mortar, divided, and suspended in tab water to individual 12 mg/200 mL doses of pill per animal administered per os (Entresto® group) [35].
(§3) The in vivo stability was determined in healthy male Swiss albino mice (12 mice in total, body weights 30 ± 5 g). Briefly, each radiolabeled peptide was injected as a bolus (100 μL, 11–22 MBq, 3 nmol of total peptide in saline/EtOH 9/1 v/v) in the tail vein of mice either untreated (controls) or 20 min after having received per os a slurry of an Entresto® pill (individual 12 mg/200 mL doses of pill per animal; Entresto®-group; Novartis, Basel, Switzerland), as previously described [34, 35]. Blood was collected 5 min post-injection (pi) in a chilled syringe directly from the heart (0.5–1 mL) and samples were processed prior to being analyzed by HPLC for the detection of forming radiometabolites, as previously described [25, 35]. For analyses, an XBridge Shield RP18 (5 μm, 4.6 mm × 20 mm) column (Waters, Vienna, Austria) was eluted at a flow rate of 1 mL/min with 0.1% TFA in H2O (A) and MeCN (B) with the following linear gradient system: 100%A/0%B at 0 min, with B linearly increasing by 1%/min to 60%A/40%B (system 2).

[3] = Radiometal complex stability (PBS, EDTA challenge, human serum), ITLC; conditions: 1 h at 37 °C, n = 3
Protocol: The radiochemical stability to transchelation was assessed by incubation of the radiolabeled peptide either with 1000× molar excess of EDTA or by incubation in human serum for 1 h at 37 °C. Incubation of radiolabeled peptide in PBS was used as control. The leakage of radiometal from the radiometal-chelate was determined with ITLC.

[4] = Biodistribution in mice bearing PC-3 tumors; conditions: Balb/c nu/nu, mouse, iv, total radioactivity, n = 4; for tissue uptake at 1 h: 1 h pi; for tissue uptake at 4 h: 4 h pi; for tissue uptake at 24 h: 24 h pi
Protocol: as §1

[5] = tested on: PC-3 tumors (GRPR-positive); experiment: Biodistribution in mice bearing PC-3 tumors; conditions: 1 h pi, n = 4
Protocol: as §1

in vivo = conditions: Balb/c nu/nu, mouse, iv, 40 pmol, total radioactivity
Protocol: as §1

[6] = mouse, in vivo
Protocol: as §2, §3

[7] = PC-3 tumor, 40 pmol, Tumor (PC-3) uptake
[8] = kidneys, 40 pmol, Kidneys uptake
[9] = pancreas, 40 pmol, Pancreas uptake
[10] = small intestine, 40 pmol, Small intestine uptake

- tissue uptake at 1 h ([1]; DU-145 tumor, read-out: uptake in DU-145 tumors (GRPR-negative)): 0.9 ± 0.2 %ID/g
- tissue uptake at 1 h ([1]; pancreas, DU-145 tumor-bearing mice, read-out: pancreas uptake, negative control group): 2.2 ± 0.7 %ID/g
- % intact radioligand in peripheral mice blood ([2]; Entresto-treated group (NEP inhibition, per os)): 91 ± 2%
- % intact radioligand in peripheral mice blood ([2]; control (untreated) mice): 88 ± 8%
- Radiochemical stability, % protein-associated activity, EDTA ([3]; 1000× molar excess of EDTA): 98.7 ± 0.3%
- Radiochemical stability, % protein-associated activity, PBS ([3]; PBS control): 100.0 ± 0.3%
- Radiochemical stability, % protein-associated activity, Serum ([3]; human serum): 99.2 ± 0.3%
- tissue uptake at 1 h [4, 7]: 7 ± 0.7 %ID/g
- tissue uptake at 4 h [4, 7]: 5.7 ± 1.8 %ID/g
- tissue uptake at 24 h [4, 7]: 1.8 ± 0.6 %ID/g
- tissue uptake at 1 h ([4]; PC-3 tumor, with unlabeled NOTA-PEG2-RM26, 5 nmol (in vivo GRPR blocking), PC-3 tumor uptake, GRPR-blocking group, excess unlabeled NOTA-PEG2-RM26 (5 nmol)): 0.9 ± 0.6 %ID/g
- tissue uptake at 1 h ([4]; blood, 40 pmol, Blood uptake): 0.6 ± 0.1 %ID/g
- tissue uptake at 4 h ([4]; blood, 40 pmol, Blood uptake): 0.11 ± 0.07 %ID/g
- tissue uptake at 24 h ([4]; blood, 40 pmol, Blood uptake): 0.02 ± 0.01 %ID/g
- tissue uptake at 1 h ([4]; bone, 40 pmol, Bone uptake): 0.17 ± 0.09 %ID/g
- tissue uptake at 4 h ([4]; bone, 40 pmol, Bone uptake): 0.09 ± 0.03 %ID/g
- tissue uptake at 24 h ([4]; bone, 40 pmol, Bone uptake): 0.06 ± 0.03 %ID/g
- tissue uptake at 1 h [4, 8]: 7.2 ± 0.9 %ID/g
- tissue uptake at 4 h [4, 8]: 6 ± 1 %ID/g
- tissue uptake at 24 h [4, 8]: 3 ± 0.9 %ID/g
- tissue uptake at 1 h ([4]; liver, 40 pmol, Liver uptake): 0.55 ± 0.04 %ID/g
- tissue uptake at 4 h ([4]; liver, 40 pmol, Liver uptake): 0.24 ± 0.02 %ID/g
- tissue uptake at 24 h ([4]; liver, 40 pmol, Liver uptake): 0.1 ± 0.03 %ID/g
- tissue uptake at 1 h ([4]; lungs, 40 pmol, Lungs uptake): 0.46 ± 0.09 %ID/g
- tissue uptake at 4 h ([4]; lungs, 40 pmol, Lungs uptake): 0.17 ± 0.06 %ID/g
- tissue uptake at 24 h ([4]; lungs, 40 pmol, Lungs uptake): 0.03 ± 0.03 %ID/g
- tissue uptake at 1 h ([4]; muscle, 40 pmol, Muscle uptake): 0.15 ± 0.08 %ID/g
- tissue uptake at 4 h ([4]; muscle, 40 pmol, Muscle uptake): 0.13 ± 0.05 %ID/g
- tissue uptake at 24 h ([4]; muscle, 40 pmol, Muscle uptake): 0.01 ± 0.01 %ID/g
- tissue uptake at 1 h [4, 9]: 2.2 ± 0.6 %ID/g
- tissue uptake at 4 h [4, 9]: 0.29 ± 0.02 %ID/g
- tissue uptake at 24 h [4, 9]: 0.03 ± 0.01 %ID/g
- tissue uptake at 1 h ([4]; pancreas, with unlabeled NOTA-PEG2-RM26, 5 nmol (in vivo GRPR blocking), pancreas uptake, blocked group, excess unlabeled NOTA-PEG2-RM26 (5 nmol)): 0.3 ± 0.2 %ID/g
- tissue uptake at 1 h [4, 10]: 1.1 ± 0.6 %ID/g
- tissue uptake at 4 h [4, 10]: 0.3 ± 0.2 %ID/g
- tissue uptake at 24 h [4, 10]: 0.03 ± 0.01 %ID/g
- tissue uptake at 1 h ([4]; spleen, 40 pmol, Spleen uptake): 0.3 ± 0.2 %ID/g
- tissue uptake at 4 h ([4]; spleen, 40 pmol, Spleen uptake): 0.22 ± 0.07 %ID/g
- tissue uptake at 24 h ([4]; spleen, 40 pmol, Spleen uptake): 0.1 ± 0.03 %ID/g
- Pancreas uptake [5]: 2.23 ± 0.56 %IA/g
Compound: CC(C)C[C@H](NC(=O)C[C@H](O)[C@H](CC(C)C)NC(=O)[C@H](Cc1c[nH]cn1)NC(=O)CN(C)C(=O)[C@@H](NC(=O)[C@H](C)NC(=O)[C@H](Cc1c[nH]c2ccccc12)NC(=O)[C@H](CCC(N)=O)NC(=O)[C@@H](Cc1ccccc1)NC(=O)COCCOCCNC(=O)CCC(C(=O)O)N1CCN(CC(=O)O)CCN(CC(=O)O)CCN(CC(=O)O)CC1)C(C)C)C(N)=O (mixture of isomers) [[^111In]In-AU-RM26-M1, [^111In]In-DOTAGA-PEG2-(Sar^11)RM26, metal not drawn]

- tissue uptake at 1 h (in vivo; Blood uptake): 0.5 ± 0.3 %ID/g
- tissue uptake at 4 h (in vivo; Blood uptake): 0.07 ± 0.01 %ID/g
- tissue uptake at 24 h (in vivo; Blood uptake): 0.015 ± 0.003 %ID/g
- tissue uptake at 1 h (in vivo; Bone uptake): 0.13 ± 0.08 %ID/g
- tissue uptake at 4 h (in vivo; Bone uptake): 0.07 ± 0.04 %ID/g
- tissue uptake at 24 h (in vivo; Bone uptake): 0.04 ± 0.03 %ID/g
- tissue uptake at 1 h (in vivo; Kidneys uptake): 4.6 ± 0.9 %ID/g
- tissue uptake at 4 h (in vivo; Kidneys uptake): 3.5 ± 0.7 %ID/g
- tissue uptake at 24 h (in vivo; Kidneys uptake): 2 ± 0.5 %ID/g
- tissue uptake at 1 h (in vivo; Liver uptake): 0.5 ± 0.1 %ID/g
- tissue uptake at 4 h (in vivo; Liver uptake): 0.23 ± 0.05 %ID/g
- tissue uptake at 24 h (in vivo; Liver uptake): 0.16 ± 0.02 %ID/g
- tissue uptake at 1 h (in vivo; Lungs uptake): 0.5 ± 0.2 %ID/g
- tissue uptake at 4 h (in vivo; Lungs uptake): 0.11 ± 0.02 %ID/g
- tissue uptake at 24 h (in vivo; Lungs uptake): 0.04 ± 0.01 %ID/g
- tissue uptake at 1 h (in vivo; Muscle uptake): 0.11 ± 0.08 %ID/g
- tissue uptake at 4 h (in vivo; Muscle uptake): 0.04 ± 0.01 %ID/g
- tissue uptake at 24 h (in vivo; Muscle uptake): 0.01 ± 0.01 %ID/g
- tissue uptake at 1 h (in vivo; Pancreas uptake): 1.9 ± 1 %ID/g
- tissue uptake at 4 h (in vivo; Pancreas uptake): 0.18 ± 0.04 %ID/g
- tissue uptake at 24 h (in vivo; Pancreas uptake): 0.03 ± 0.01 %ID/g
- tissue uptake at 1 h (in vivo; Small intestine uptake): 0.8 ± 0.2 %ID/g
- tissue uptake at 4 h (in vivo; Small intestine uptake): 0.13 ± 0.04 %ID/g
- tissue uptake at 24 h (in vivo; Small intestine uptake): 0.05 ± 0.05 %ID/g
- tissue uptake at 1 h (in vivo; Spleen uptake): 0.21 ± 0.06 %ID/g
- tissue uptake at 4 h (in vivo; Spleen uptake): 0.1 ± 0.02 %ID/g
- tissue uptake at 24 h (in vivo; Spleen uptake): 0.1 ± 0.03 %ID/g
- tissue uptake at 1 h (in vivo; Tumor (PC-3) uptake): 6 ± 0.4 %ID/g
- tissue uptake at 4 h (in vivo; Tumor (PC-3) uptake): 3 ± 1 %ID/g
- tissue uptake at 24 h (in vivo; Tumor (PC-3) uptake): 1.2 ± 0.4 %ID/g
- % degraded in peripheral mice blood [6]: about 30%
Compound: CC(C)C[C@H](NC(=O)C[C@H](O)[C@H](CC(C)C)NC(=O)[C@H](Cc1c[nH]cn1)NC(=O)CNC(=O)[C@@H](NC(=O)[C@H](C)NC(=O)[C@H](Cc1c[nH]c2ccccc12)NC(=O)[C@H](CCC(N)=O)NC(=O)[C@@H](Cc1ccccc1)NC(=O)COCCOCCNC(=O)CCC(C(=O)O)N1CCN(CC(=O)O)CCN(CC(=O)O)CCN(CC(=O)O)CC1)C(C)C)C(N)=O (mixture of isomers) [[^111In]In-DOTAGA-PEG2-RM26, metal not drawn]
